Test results taken from ChEMBL document CHEMBL1134926, “Structure-Activity relationships of 2-substituted 5,7-Diarylcyclopenteno[1,2-b]pyridine-6-carboxylic acids as a novel class of endothelin receptor antagonists” (Bioorg Med Chem Lett, 2002).

How the values were obtained:
[1] = biological target: T1, Endothelin receptor type B (Homo sapiens, UniProt P24530); test: Inhibitory activity against I-labeled ET-1 binding to Endothelin B receptor
T1 sequence (P24530 whole entry): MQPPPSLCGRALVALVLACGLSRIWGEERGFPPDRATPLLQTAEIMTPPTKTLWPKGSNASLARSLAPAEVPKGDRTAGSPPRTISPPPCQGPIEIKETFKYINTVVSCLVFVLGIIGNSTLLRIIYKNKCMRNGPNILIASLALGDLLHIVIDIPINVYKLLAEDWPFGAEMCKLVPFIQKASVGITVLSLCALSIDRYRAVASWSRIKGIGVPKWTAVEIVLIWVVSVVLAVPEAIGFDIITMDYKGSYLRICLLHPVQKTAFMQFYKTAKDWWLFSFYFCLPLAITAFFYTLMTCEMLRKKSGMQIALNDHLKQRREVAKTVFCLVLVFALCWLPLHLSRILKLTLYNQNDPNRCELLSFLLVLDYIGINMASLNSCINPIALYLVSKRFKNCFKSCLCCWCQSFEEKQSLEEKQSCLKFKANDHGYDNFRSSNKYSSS

[2] = biological target: Endothelin receptor, ET-A/ET-B (Homo sapiens) (UniProt P24530+P25101); test: Selectivity was calculated as the ratio of IC50 of Endothelin B receptor / IC50 of Endothelin A receptor; assay type: protein assay
Endothelin-1 receptor = biological target: T2, Endothelin-1 receptor (Homo sapiens, UniProt P25101); test: Inhibitory activity against I-labeled ET-1 binding to Endothelin A receptor
T2 sequence (P25101 whole entry): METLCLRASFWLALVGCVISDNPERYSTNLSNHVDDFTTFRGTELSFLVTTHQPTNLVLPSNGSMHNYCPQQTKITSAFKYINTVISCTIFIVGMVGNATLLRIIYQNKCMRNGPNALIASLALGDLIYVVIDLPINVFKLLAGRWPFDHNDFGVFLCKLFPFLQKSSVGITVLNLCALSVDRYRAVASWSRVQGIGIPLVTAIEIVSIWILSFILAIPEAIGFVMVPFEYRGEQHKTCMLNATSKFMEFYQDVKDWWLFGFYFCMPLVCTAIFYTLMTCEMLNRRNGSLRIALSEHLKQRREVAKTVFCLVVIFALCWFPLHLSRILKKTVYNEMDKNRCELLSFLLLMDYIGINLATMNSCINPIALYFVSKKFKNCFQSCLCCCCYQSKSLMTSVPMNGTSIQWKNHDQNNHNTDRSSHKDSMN

Row | IC50 [1] [nM] | Ratio [2] | IC50 (Endothelin-1 receptor) [nM] | SMILES
1 | 42 | 420 | 0.1 | COc1ccc([C@@H]2c3nc(NC(C)C)ccc3C(c3ccc4c(c3)OCO4)[C@H]2C(=O)O)cc1 (single isomer, unassigned)
2 | 63 | 39 | 1.6 | COc1ccc([C@@H]2c3nc(C4CC4)ccc3[C@H](c3ccc4c(c3)OCO4)[C@H]2C(=O)O)cc1
3 | 140 | 270 | 0.51 | CCOCc1ccc2c(n1)[C@@H](c1ccc(OC)cc1)[C@H](C(=O)O)C2c1ccc2c(c1)OCO2 (single isomer, unassigned)
4 | 130 | 8.7 | 15 | COc1ccc([C@@H]2c3nc(-c4ccccc4)ccc3C(c3ccc4c(c3)OCO4)[C@H]2C(=O)O)cc1 (single isomer, unassigned)
5 | 21 | 9.5 | 2.2 | COc1ccc([C@@H]2c3nc(N4CCCC4)ccc3C(c3ccc4c(c3)OCO4)[C@H]2C(=O)O)cc1 (single isomer, unassigned)
6 | 8.4 | 26 | 0.32 | COc1ccc([C@@H]2c3nc(CC(C)C)ccc3[C@H](c3ccc4c(c3)OCO4)[C@H]2C(=O)O)cc1
7 | 410 | 170 | 2.4 | COc1ccc([C@@H]2c3ncccc3[C@H](c3ccc4c(c3)OCO4)[C@H]2C(=O)O)cc1
8 | 190 | 350 | 0.55 | COc1ccc([C@@H]2c3nc(CCCO)ccc3C(c3ccc4c(c3)OCO4)[C@H]2C(=O)O)cc1 (single isomer, unassigned)
9 | 65 | 71 | 0.92 | CCCOc1ccc2c(n1)[C@@H](c1ccc(OC)cc1)[C@H](C(=O)O)C2c1ccc2c(c1)OCO2 (single isomer, unassigned)
10 | 87 | 19 | 4.5 | CCc1ccc2c(n1)[C@@H](c1ccc(OC)cc1)[C@H](C(=O)O)[C@H]2c1ccc2c(c1)OCO2
11 | 940 | 130 | 7 | CCNCc1ccc2c(n1)[C@@H](c1ccc(OC)cc1)[C@H](C(=O)O)C2c1ccc2c(c1)OCO2 (single isomer, unassigned)
12 | 9.1 | 4.8 | 1.9 | CCCCCc1ccc2c(n1)[C@@H](c1ccc(OC)cc1)[C@H](C(=O)O)[C@H]2c1ccc2c(c1)OCO2
13 | 11 | 52 | 0.21 | CCCCc1ccc2c(n1)[C@@H](c1ccc(OC)cc1)[C@H](C(=O)O)[C@H]2c1ccc2c(c1)OCO2
14 | 100 | 18 | 5.7 | COc1ccc([C@@H]2c3nc(C)ccc3[C@H](c3ccc4c(c3)OCO4)[C@H]2C(=O)O)cc1
15 | 530 | 3.5 | 150 | COc1ccc([C@@H]2c3nc(CCC(=O)O)ccc3C(c3ccc4c(c3)OCO4)[C@H]2C(=O)O)cc1 (single isomer, unassigned)
16 | 30 | 81 | 0.37 | CCCc1ccc2c(n1)[C@@H](c1ccc(OC)cc1)[C@H](C(=O)O)[C@H]2c1ccc2c(c1)OCO2
17 | 14 | 4.4 | 3.2 | COc1ccc([C@@H]2c3nc(N(C)C(C)C)ccc3C(c3ccc4c(c3)OCO4)[C@H]2C(=O)O)cc1 (single isomer, unassigned)
18 | 63 | 520 | 0.12 | CCCNc1ccc2c(n1)[C@@H](c1ccc(OC)cc1)[C@H](C(=O)O)C2c1ccc2c(c1)OCO2 (single isomer, unassigned)
19 | 14 | 70 | 0.2 | C=CCCc1ccc2c(n1)[C@@H](c1ccc(OC)cc1)[C@H](C(=O)O)[C@H]2c1ccc2c(c1)OCO2
20 | 53 | 6.5 | 8.2 | CCCSc1ccc2c(n1)[C@@H](c1ccc(OC)cc1)[C@H](C(=O)O)C2c1ccc2c(c1)OCO2 (single isomer, unassigned)
